For the test, the target named is T1, thrombin (Bos taurus, UniProt P00735).
T1 construct: purchased Sigma T-3399
Kind of test: biological assay for thrombin inhibitory activity (fluorogenic substrate). Particulars: for inhibition at 50 µM: test probe concentration 50 μM; for inhibition at 100 µM: test probe concentration 100 μM. Format: biochemical. As to the method: The biological assay for thrombin inhibitory activity is detailed below. To Costar® 96-well black fluorescence plate wells is added 70 microliters of assay buffer, followed by 10 microliters of 1 millimolar substrate solution. Test probe (10 microliters in 30% DMSO) is then added to wells according to the desired concentrations for the assay. The mixture is incubated at 37° C. for 5 minutes, followed by addition of 10 microliters of thrombin (100 micrograms/mL in assay buffer), to make a final assay volume of 100 microliters. The plate is mixed gently and incubated 15 minutes at 37° C. Stop buffer (100 microliters) is added, and the plate is read by detecting fluorescence intensity (Excitation at 360 nm, Emission at 460 nm). Percent inhibition of test compound is calculated by comparison with control wells. “Assay buffer” is composed of 100 mM KH2PO4, 100 mM Na2HPO4, 1 mM EDTA, 0.01% BRIJ-35, and 1 mM dithiothreitol (added fresh on the day assay is preformed). “Stop buffer” is composed of 100 mM Na—O(O)CCH2Cl and 30 mM sodium acetate which is brought to pH 2.5 with glacial acetic acid. Thrombin was purchased from Sigma (cat #T-3399). Thrombin substrate III fluorogenic was purchased from ICN (cat #195915). Sodium acetate, dithiothreitol, and Brij-35 were purchased from Sigma. Sodium monochloroacetate was purchased from Lancaster 223-498-3. Glacial acetic acid was purchased from Alfa Aesar (cat # 33252). Thrombin was stored at −20° C. Thrombin substrate fluorogenic was stored at −20° C. (5 mM in DMSO).

For orientation: inhibition means the drop in the measured response relative to a control, in per cent.

SMILES strings stand for the structures.

In the case of `COc1ccc(CNC(=O)c2cc(Cl)ccc2NC(=O)c2n[nH]c3ccccc23)cc1OC` [Example B1], the inhibition at 50 µM was in the range of 10 to 39% and the inhibition at 100 µM was in the range of 40 to 74%.

As for `CCCCN(CCCC)CCCNC(=O)c1cc(Cl)ccc1NC(=O)c1n[nH]c2ccccc12` [Example B2], the inhibition at 50 µM was 10 to 39% and the inhibition at 100 µM lay within 40 to 74%.

As to `CC(NC(=O)C(NC(=O)c1n[nH]c2ccccc12)C1CCNCC1)c1ccccc1` (stereo not drawn) [Example B3], the inhibition at 50 µM lay within 10 to 39% and the inhibition at 100 µM was in the range of 40 to 74%.

Source of the values: patent US20040019432A1, “System and method for integrated computer-aided molecular discovery” (priority 2002, published 2004).
